This note sets out measurements from patent US7776794B2, “Biosensor using living cells on silicon-based microarrays” (The Research Foundation of State University of New York, priority 2003, dated 2010).

This test has as its system FT cells. As to the kind of experiment: Amperometric recording of norepinephrine release from pre-loaded FT cells on the microarray upon ATP stimulation. Format: cell-based, Rana catesbeiana. Conditions: ATP final concentration 300 μM in FT medium; FT cells preloaded in 4 mM NE for 15 min; single electrode held at 700 mV (FIG. 9, trace 1). The method, then:
The cells, which have grown to become a confluent monolayer on the surface of the microarray, are “pre-loaded” with medium containing the appropriate amount of an oxidizable molecule, for example, 0.5-10 mM of a catecholamine such as norepinephrine (NE), for a time sufficient for the cells to endocytose the catecholamine, about 1-30 minutes. The pre-loading medium is then replaced with fresh medium, and the solution is grounded with a Ag/AgCl wire.
Within minutes of pre-loading, the cells are then exposed to a biological sample containing an analyte, the detection of which is desired. Binding of analyte to a receptor on the cells' surface increases intracellular calcium, thereby stimulating release of the pre-loaded NE. This secretion event is detected with millisecond temporal resolution via electrochemical oxidation of the secreted compound on an electrode that is voltage-clamped slightly above its redox potential. Increases in current due to oxidation of NE on the Cr/Au electrode is recorded. This is represented schematically in FIG. 4.
A microarray containing a confluent growth of FT cells was subsequently tested. To test the response properties of the cells to ATP (0.3 mM), microarrays with confluent cultures of cells were measured prior to preloading with NE. Then, cells were pre-loaded with varying concentrations of NE and ATP was reapplied. […]

On to `Nc1ncnc2c1ncn2[C@@H]1O[C@H](COP(=O)(O)OP(=O)(O)OP(=O)(O)O)[C@@H](O)[C@H]1O` [ATP], for which the “duration of current response” value lay within 9 to 10 min and the “peak current above baseline” value is reported as “approximately 800 pA”.
